Measurements as given in US5096919A, “Pyrrolylphenyl-substituted hydroxamic acid derivatives” (Ciba-Geigy Corporation, priority 1989, dated 1992).

Key:
5-lipoxygenase [1] = test: Ex vivo inhibition of A-23187-stimulated LTB4 formation in whole blood after oral administration; settings: dose of about 1 mg/kg p.o. to the dog
Procedure: Furthermore, the inhibition of 5-lipoxygenase is determined after oral or i.v. administration to rats or dogs by measuring ex vivo in whole blood the decrease of A-23187-stimulated LTB4 formation as compared to non-treated control animals.
(§1) Illustrative of the invention, the compound of example 1, (E)-3-[4-(2,5-dimethyl-1H-pyrrol-1-yl)-phenyl]-N-hydroxy-N-methyl-2-propenamide, inhibits the formation of 5-HETE [(5S)-5-hydroxy-6,8,11,14-eicosa-tetraenoic acid] and leukotriene B4 (LTB4, 5,12-dihydroxy-6,8,10,14-eicosatetraenoic acid) in A-23187-stimulated guinea pig polymorphonuclear leukocytes, e.g. at an IC50 of about 0.7 micromolar (7×10^-7 M).

[2] = test system: rat pleurisy model of inflammation; test: Carrageenin-induced pleurisy model of inflammation; type: in vivo; settings: 10 mg/kg p.o. at -1, 6, 24 and 45 hours relative to carrageenin injection, 48 hours after injection
5-lipoxygenase [3] = target: T1, 5-lipoxygenase (Cavia porcellus, UniProt A0A286X958); test: Inhibition of 5-HETE and LTB4 synthesis in A-23187-stimulated guinea pig polymorphonuclear leukocytes; type: cell-based; settings: also printed as 7×10^-7 M, read-out: IC50 for inhibition of the formation of 5-HETE and leukotriene B4 (LTB4)
T1 construct: in A-23187-stimulated guinea pig polymorphonuclear leukocytes; endogenous in cells; host or cells: guinea pig polymorphonuclear leukocytes
T1 sequence (A0A286X958 1-674): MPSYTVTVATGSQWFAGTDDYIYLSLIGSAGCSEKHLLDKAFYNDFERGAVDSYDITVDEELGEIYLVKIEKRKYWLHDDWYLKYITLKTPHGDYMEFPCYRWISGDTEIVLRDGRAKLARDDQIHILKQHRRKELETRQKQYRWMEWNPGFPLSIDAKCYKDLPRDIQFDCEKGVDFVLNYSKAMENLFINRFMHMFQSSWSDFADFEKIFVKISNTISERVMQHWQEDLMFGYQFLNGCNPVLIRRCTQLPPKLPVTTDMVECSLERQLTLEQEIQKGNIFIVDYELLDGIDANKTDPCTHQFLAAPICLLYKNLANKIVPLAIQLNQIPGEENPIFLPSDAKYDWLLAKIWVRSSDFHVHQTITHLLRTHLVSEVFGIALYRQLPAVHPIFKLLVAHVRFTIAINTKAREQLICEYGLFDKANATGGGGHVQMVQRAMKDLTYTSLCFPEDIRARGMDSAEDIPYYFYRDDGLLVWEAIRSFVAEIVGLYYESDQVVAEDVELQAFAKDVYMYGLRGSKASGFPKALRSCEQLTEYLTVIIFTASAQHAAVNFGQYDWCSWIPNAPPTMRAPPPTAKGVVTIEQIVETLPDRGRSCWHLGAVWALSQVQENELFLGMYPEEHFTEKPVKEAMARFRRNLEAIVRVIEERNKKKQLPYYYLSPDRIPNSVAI
Procedure: 5-Lipoxygenase inhibition is determined e.g. by measuring the percent inhibition of the synthesis of 5-HETE [(5S)-5-hydroxy-6,8,11,14-eicosa-tetraenoic acid] and leukotriene B4 (LTB4, 5,12-dihydroxy-6,8,10,14-eicosatetraenoic acid) in A-23187-stimulated guinea pig polymorphonuclear leukocytes, essentially according to radiometric thin-layer chromatographic assays described by Walker and Dawson (J. Pharm. Pharmacol. 31: 778, 1979) and Jakschik and Lee (Nature 287: 51, 1980) used to measure the formation of 5-HETE and LTB4 -like products from ^14 C-arachidonic acid. IC50 values are determined graphically as the concentration of test compound at which the synthesis of 5-HETE and LTB4 -like products is reduced to 50% of their respective control values.
as §1

Compound: Cc1ccc(C)n1-c1ccc(/C=C/C(=O)N(C)O)cc1 [Example 1, (E)-3-[4-(2,5-dimethyl-1H-pyrrol-1-yl)-phenyl]-N-hydroxy-N-methyl-2-propenamide]
- inhibition of LTB4 formation as determined ex vivo (5-lipoxygenase [1]): 50%
- cell count of leukocytes [2]: lowers the cell count of leukocytes
- inhibition of exudate volume [2]: causes inhibition of exudate volume
- IC50 (5-lipoxygenase [3]): ~700 nM
